This note sets out measurements from patent US8734775B2, “Chemokine derived peptides that bind with chemokine receptor CXCR3 and uses for chronic wound and angiogenesis inhibition treatments” (University of Pittsburgh, priority 2011, dated 2014).

Holding throughout (type): cell-based, human
One assay has as its system HMEC-1 cells. Briefly: Tube formation on growth factor reduced Matrigel. Here is the method: To determine whether the IP-10 peptide is able to inhibit tube formation, HMEC-1 cells were grown on growth factor reduced (“GFR”) Matrigel in the presence of VEGF165, IP-10 and/or IP-10dp and the cultures inspected and compared to asses the relative degree of tube formation according to the following procedure. GFR Matrigel 10 μl/well (μ-angiogenesis slide, Ibidi), was incubated for 15 minutes at 37° C. HMEC-1 cells (10,000 cells/well) were re-suspended in 1.0% FBS MDCB131 media containing VEGF (75 ng/ml), IP-10 (300 ng/ml) and IP-10dp (10 μM) and or anti-CXCR3 neutralizing antibody. Treated cells (1×10^4 cells/well) were added to 24-well culture plates coated with growth factor reduced Matrigel and incubated for 24 hours at 37° C. to allow tube formation.
The cells cultures were then imaged for tube formation using an Olympus IX70 microscope equipped with a Hammastu camera using MetaView™ software (Universal Imaging Corporation, Downington, Pa.). FIG. 4A is a grid of six labeled black and white photographs taken at this 24 hour point with 4× magnification showing the following representative cell cultures from upper left to lower right: a control culture having no treatment, a culture having treatment only with IP-10, a culture having treatment only with IP-10dp, a culture having treatment only with VEGF, a culture having treatment with combined VEGF and IP-10, and a culture having treatment with combined VEGF and IP-10dp.
Analysis of tube formation was preformed using MetaMorph (obtained from Universal Imaging Corporation, Downington, Pa.), and the results reported in the graph of FIG. 4 are shown as a percent of the no-treatment control. The data reported therein are of N=6 and normalized to no treatment (average±SEM), with *P<0.05. As shown by the graph, IP-10 peptide is able to inhibit tube formation. In particular, after incubation for 24 hours, the HMEC-1 cells cultures were able to form tubes in the presence or absence of VEGF165 (compare the photographic images in FIG. 4A).

Assay [1] has as its system HMEC-1 cells treated with CXCR3 siRNA. The assay can be described thus: Tube formation in CXCR3 siRNA-treated cells. Particulars: CXCR3 knockdown; concentrations as in Experiment 3. On the procedure: In the various experiments detailed below, unless otherwise noted, siRNA down regulation of CXCR3 was accomplished according to the following procedure. HMEC-1 cells were plated at 5.5×10^5 cells/60 mm dish and incubated overnight. The cells were 90-95% confluent. Cells were transfected with 4 μM siRNA (2 μM Sigma, 2 μM Santa Cruz) using Dharamacon #4 transfection reagent. The cells were incubated for 24 hours, and then placed in EGM-2MV media for 48 hours. The cells were then transfected again as indicated above. After 48 hours of incubation in EGM-2MV media the cells were then used for experimentation.
In the various experiments described below, to the extent not otherwise noted, CXCR3 siRNA transfection was preformed according to the procedure as previously described by Koh et al. (“Methods in Enzymology,” 2008, vol 443, p. 84), and summarized briefly as follows. HMEC-1 cells were plated in 6 well tissue culture plate at 4.0×10^5 cells/well in complete MCDB131 media and incubated overnight. The cells were ˜75% confluent. The media was removed and replaced with serum free Opti-Mem and incubated for 30 minutes. Dharmafect #4 was added to Opti-Mem to a final concentration of 2.5% (final volume […]) then incubated for 5 minutes at room temp. In parallel, CXCR3 siRNA was diluted in Opti-Mem to a final concentration of […] then incubated for 5 minutes at room temp. […]

Assay [2] has as its system cAMP production in HMEC-1 cells. The assay can be described thus: cAMP enzyme immunoassay in endothelial cells. On the procedure:
Thus, an experiment was conducted to determine if stimulation of endothelial cells with IP-10dp would induce an increase in cAMP. HMEC-1 cells were plated in 10 mm culture dishes and grown to confluency in complete growth media. The cells were then incubated in serum-reduced media (0.5% dialyzed FBS for HMEC-1 cells) for 24 hours at 37° C. The cells were then washed once with PBS and incubated in serum-free media. The cells were then stimulated with forskolin ([…]), VEGF (100 ng/ml), IP-10 (200 ng/ml), IP-10dp (10 μM) alone or in various combinations. The media was removed and ice cold 80% ethanol was added and the cells incubated on ice for 15 minutes. The extracts were evaluated and quantified for total cAMP production by using a cAMP enzyme immunoassay kit provided by Sigma-Aldrich Corp., of St. Louis, Mo., according to the manufacturer's protocol.

Regarding “PESKAIKNLLKAVSKEMSKRSP (IP-10dp; listed as Homo sapiens) [synthetic fragment of IP-10 comprising residues 78-98, the C-terminal α-helical domain]”, the “tubes formed in the presence of VEGF165” value with HMEC-1 cells (IP-10dp 10 μM plus VEGF 75 ng/ml, 24 hours) is “significant reduction”. For the same sequence, in the assay with HMEC-1 cells (IP-10dp 10 μM, no VEGF, 24 hours), the “tubes formed compared to control” value was “significant reduction in tubes formed”. For the same sequence, the “inhibition of tube formation compared with full length IP-10” value in the assay on HMEC-1 cells (presence and absence of VEGF, IP-10dp 10 μM vs IP-10 300 ng/ml) was “slightly better”. In assay [1], the “formation of tubes in CXCR3 siRNA-treated cells” value is given as “did not show a significant difference”. Also, the “increase in cAMP production compared to control and VEGF treated cells” value in assay [2] (IP-10dp 10 μM) is listed as 2-3 fold. Also, the “cAMP production with VEGF plus IP-10dp compared to VEGF alone” value in assay [2] (VEGF 100 ng/ml plus IP-10dp 10 μM) is given as “significant increase in cAMP production”.
